Here are results for 14 compounds from patent publication US4892875A, “Substituted heterocyclylalkyl esters of 1,4-dihydropyridine-3,5-dicarboxylic acids” (Takeda Chemical Industries, Ltd., priority 1982, dated 1990).

A value given as a limit tells only on which side of the number the result lay.

This test deals with spontaneously hypertensive rats. In words: Antihypertensive action (systolic blood pressure, caudal artery) in male spontaneously hypertensive rats. The test is classed as in vivo, rat. Conditions: 10 mg/kg oral; for Change in blood pressure 1 hr. after treatment / Change in blood pressure 5 hrs. after treatment: after minus before medication, * P < 0.05 vs control; for Duration of antihypertensive effect: measured 1, 5, 8 and 24 hours after administration. The method, then:
Male spontaneously hypertensive rats aged 10 to 11 weeks were used (in groups of 3 to 6 individuals). […] Each test compound was suspended in a 5% solution of gum arabic and orally administered. The dosage was 10 mg/kg for all compounds. Animals in a control group was given the above solution of gum arabic only.

For “2-[4-(4-fluorophenyl)-1-piperazinyl]ethyl methyl 4-(3-chlorophenyl)-2,6-dimethyl-1,4-dihydropyridine-3,5-dicarboxylate [Example 42]”, the “Change in blood pressure 1 hr. after treatment” value is on record as -25 mmHg, the “Change in blood pressure 5 hrs. after treatment” value is listed as -35 mmHg and the “Duration of antihypertensive effect” value was in the range of 8 to 24 h.

Take `CCOC(=O)C1=C(C)NC(C)=C(C(=O)OCCN2CCN(C(c3ccccc3)c3ccccc3)CC2)C1c1cccc([N+](=O)[O-])c1` (stereo not drawn) [Example 2, 2-(4-benzhydryl-1-piperazinyl)ethyl ethyl 2,6-dimethyl-4-(3-nitrophenyl)-1,4-dihydropyridine-3,5-dicarboxylate]: the “Change in blood pressure 1 hr. after treatment” value is on record as -99 mmHg, the “Change in blood pressure 5 hrs. after treatment” value is -101 mmHg and the “Duration of antihypertensive effect” value lay within 8 to 24 h.

For `CCOC(=O)C1=C(C)NC(C)=C(C(=O)OCCN2CCN(C(c3ccccc3)c3ccccc3)CC2)C1c1cccc(Cl)c1Cl` (stereo not drawn) [Example 7, 2-(4-benzhydryl-1-piperazinyl)ethyl ethyl 4-(2,3-dichlorophenyl)-2,6-dimethyl-1,4-dihydropyridine-3,5-dicarboxylate], the “Change in blood pressure 1 hr. after treatment” value was -59 mmHg, the “Change in blood pressure 5 hrs. after treatment” value is -79 mmHg and the “Duration of antihypertensive effect” value was > 24 h.

Regarding `COC(=O)C1=C(C)NC(C)=C(C(=O)OCCN2CCN(C(c3ccc(C)cc3)c3ccc(C)cc3)CC2)C1c1cccc([N+](=O)[O-])c1` (stereo not drawn) [Example 9, 2-[4-(4,4'-dimethylbenzhydryl)-1-piperazinyl]ethyl methyl 2,6-dimethyl-4-(3-nitrophenyl)-1,4-dihydropyridine-3,5-dicarboxylate], the “Change in blood pressure 1 hr. after treatment” value is recorded as -96 mmHg, the “Change in blood pressure 5 hrs. after treatment” value was -98 mmHg and the “Duration of antihypertensive effect” value is > 24 h.

Take `COC(=O)C1=C(C)NC(C)=C(C(=O)OCCN2CCN(C(c3ccc(Cl)cc3)c3ccc(Cl)cc3)CC2)C1c1cccc([N+](=O)[O-])c1` (stereo not drawn) [Example 12, 2-[4-(4,4'-dichlorobenzhydryl)-1-piperazinyl]ethyl methyl 2,6-dimethyl-4-(3-nitrophenyl)-1,4-dihydropyridine-3,5-dicarboxylate]: the “Change in blood pressure 1 hr. after treatment” value is recorded as -85 mmHg, the “Change in blood pressure 5 hrs. after treatment” value is listed as -87 mmHg and the “Duration of antihypertensive effect” value was > 24 h.

As to `COC(=O)C1=C(C)NC(C)=C(C(=O)OCCN2CCN(C(c3ccc(F)cc3)c3ccc(F)cc3)CC2)C1c1cccc(Cl)c1Cl` (stereo not drawn) [Example 13, 2-[4-(4,4'-difluorobenzhydryl)-1-piperazinyl]ethyl methyl 4-(2,3-dichlorophenyl)-2,6-dimethyl-1,4-dihydropyridine-3,5-dicarboxylate], the “Change in blood pressure 1 hr. after treatment” value is reported as -34 mmHg, the “Change in blood pressure 5 hrs. after treatment” value was -31 mmHg and the “Duration of antihypertensive effect” value is 8 to 24 h.

With `COC(=O)C1=C(C)NC(C)=C(C(=O)OCCN2CCN(c3ccc(F)cc3)CC2)C1c1cccc([N+](=O)[O-])c1.Cl` (stereo not drawn) [Example 16, 2-[4-(4-fluorophenyl)-1-piperazinyl]ethyl methyl 2,6-dimethyl-4-(3-nitrophenyl)-1,4-dihydropyridine-3,5-dicarboxylate hydrochloride], the “Change in blood pressure 1 hr. after treatment” value was -51 mmHg, the “Change in blood pressure 5 hrs. after treatment” value was -45 mmHg and the “Duration of antihypertensive effect” value fell in the range of 8 to 24 h.

As for `COC(=O)C1=C(C)NC(C)=C(C(=O)OCCN2CCN(c3cccc(Cl)c3)CC2)C1c1cccc([N+](=O)[O-])c1` (stereo not drawn) [Example 17, 2-[4-(3-chlorophenyl)-1-piperazinyl]ethyl methyl 2,6-dimethyl-4-(3-nitrophenyl)-1,4-dihydropyridine-3,5-dicarboxylate], the “Change in blood pressure 1 hr. after treatment” value was -77 mmHg, the “Change in blood pressure 5 hrs. after treatment” value is -46 mmHg and the “Duration of antihypertensive effect” value was 8 to 24 h.

Consider `CCOC(=O)C1=C(C)NC(C)=C(C(=O)OCCN2CCN(C(c3ccc(C)cc3)c3ccc(C)cc3)CC2)C1c1cccc(Cl)c1Cl` (stereo not drawn) [Example 24, 2-[4-(4,4'-dimethylbenzhydryl)-1-piperazinyl]ethyl ethyl 4-(2,3-dichlorophenyl)-2,6-dimethyl-1,4-dihydropyridine-3,5-dicarboxylate], for which the “Change in blood pressure 1 hr. after treatment” value was -49 mmHg, the “Change in blood pressure 5 hrs. after treatment” value is given as -30 mmHg and the “Duration of antihypertensive effect” value is “ca. 8 hrs”.

In the case of `CCOC(=O)C1=C(C)NC(C)=C(C(=O)OCCN2CCN(C(c3ccccc3)c3ccccc3)CC2)C1c1cccc(Cl)c1` (stereo not drawn) [Example 28, 2-(4-benzhydryl-1-piperazinyl)ethyl ethyl 4-(3-chlorophenyl)-2,6-dimethyl-1,4-dihydropyridine-3,5-dicarboxylate], the “Change in blood pressure 1 hr. after treatment” value is -93 mmHg, the “Change in blood pressure 5 hrs. after treatment” value is listed as -75 mmHg and the “Duration of antihypertensive effect” value lay within 8 to 24 h.

`COCCOC(=O)C1=C(C)NC(C)=C(C(=O)OCCN2CCN(C(c3ccccc3)c3ccccc3)CC2)C1c1cccc([N+](=O)[O-])c1` (stereo not drawn) [Example 30, 2-(4-benzhydryl-1-piperazinyl)ethyl 2-methoxyethyl 2,6-dimethyl-4-(3-nitrophenyl)-1,4-dihydropyridine-3,5-dicarboxylate]: the “Change in blood pressure 1 hr. after treatment” value is -48 mmHg, the “Change in blood pressure 5 hrs. after treatment” value is listed as -31 mmHg and the “Duration of antihypertensive effect” value was in the range of 8 to 24 h.

Turning to `CCOC(=O)C1=C(C)NC(C)=C(C(=O)OCCN2CCN(C(c3ccc(C)cc3)c3ccc(C)cc3)CC2)C1c1cccc(C(F)(F)F)c1` (stereo not drawn) [Example 32, 2-[4-(4,4'-dimethylbenzhydryl)-1-piperazinyl]ethyl ethyl 2,6-dimethyl-4-(3-trifluoromethylphenyl)-1,4-dihydropyridine-3,5-dicarboxylate], the “Change in blood pressure 1 hr. after treatment” value was -46 mmHg, the “Change in blood pressure 5 hrs. after treatment” value is recorded as -48 mmHg and the “Duration of antihypertensive effect” value was 8 to 24 h.

On to `CCOC(=O)C1=C(C)NC(C)=C(C(=O)OCCN2CCN(C(c3ccc(C)cc3)c3ccc(C)cc3)CC2)C1c1cccc(Cl)c1` (stereo not drawn) [Example 33, 2-[4-(4,4'-dimethylbenzhydryl)-1-piperazinyl]ethyl ethyl 4-(3-chlorophenyl)-2,6-dimethyl-1,4-dihydropyridine-3,5-dicarboxylate], for which the “Change in blood pressure 1 hr. after treatment” value is -51 mmHg, the “Change in blood pressure 5 hrs. after treatment” value is -60 mmHg and the “Duration of antihypertensive effect” value was in the range of 8 to 24 h.

In the case of `COC(=O)C1=C(C)NC(C)=C(C(=O)OCCCN2CCN(C(c3ccccc3)c3ccccc3)CC2)C1c1cccc(Cl)c1` (stereo not drawn) [Example 38, 3-(4-benzhydryl-1-piperazinyl)propyl methyl 4-(3-chlorophenyl)-2,6-dimethyl-1,4-dihydropyridine-3,5-dicarboxylate], the “Change in blood pressure 1 hr. after treatment” value is -50 mmHg, the “Change in blood pressure 5 hrs. after treatment” value is -42 mmHg and the “Duration of antihypertensive effect” value lay in the range of 8 to 24 h.
